Measurements taken from patent US20240383874A1, “BENZENE RING DERIVATIVE, AND COMPOSITION AND PHARMACEUTICAL USE THEREOF” (Xizang Haisco Pharmaceutical Co., Ltd., priority 2020, published 2024).
Counter-ions that a name gives are not always drawn.

Columns and labels:
[1] = Pharmacokinetic test in rats; format: in vivo; conditions: rat, po; male SD rats, single dose i.g. 5 mg/kg, plasma, 0-24 h
Procedure: Test objective: in this test, a single dose of test compounds was administered to SD rats intragastrically, and the concentrations of the test compounds in plasma of the rats were measured to evaluate pharmacokinetic characteristics of the test compounds in the rats.
Test animals: male SD rats, 200-250 g, 6-8 weeks old, 3 rats/compound, purchased from Chengdu Dossy Experimental Animals Co., Ltd.
Test method: on the day of the test, 3 SD rats were randomly grouped according to their body weights. The animals were fasted with water available for 12 to 14 hours one day before the administration of a test compound, and were fed 4 hours after the administration.
Sampling: before and after the administration, 0.1 mL of blood was taken from the orbits of the rats under isoflurane anesthesia, and placed in an EDTAK2 centrifuge tube. Centrifugation was carried out at 5000 rpm at 4C for […], and the plasma was collected.
Time points for plasma collection in G1 group: 0, 5 min, 15 min, 30 min, 1 h, 2 h, 4 h, 6 h, 8 h, and 24 h.
Before analysis and detection, all samples were stored at −80° C. The samples were analyzed quantitatively by LC-MS/MS.

22RV1 cells = experiment: Experiment 2 on inhibiting 22RV1 cell proliferation (7 days, CellTiter-Glo); format: cell-based; conditions: Homo sapiens, 22Rv1, 168 h, 1% css-FBS phenol red-free medium, incubated with compound 7 days, read-out: IC50 values on proliferation inhibition of 22RV1 cells
Summary of the method: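 22RV1 cells plated at 2000/well in phenol red-free medium with 1% css-FBS and treated next day with compound for 7 days at 37 °C. Viability read by CellTiter-Glo luminescence relative to DMSO vehicle; IC50 from dose-response fit.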

Row | SMILES | AUC(0-t) [1] | IC50 (22RV1 cells)
1 | CC(C)(c1ccc(OCc2ccnc(N3CCC4(CC3)CN(CC3CCN(c5ccc6c(c5)C(=O)N(C5CCC(=O)NC5=O)C6=O)CC3)C4)n2)cc1)c1cc(Cl)cc(C#N)c1 (stereo not shown) [Compound 45, 3-chloro-5-(2-(4-((2-(2-((1-(2-(2,6-dioxopiperidin-3-yl)-1,3-dioxoisoindolin-5-yl)piperidin-4-yl)methyl)-2,7-diazaspiro[3.5]nonan-7-yl)pyrimidin-4-yl)methoxy)phenyl)propan-2-yl)benzonitrile] | 452 ± 137 ng·h/mL | –
2 | Cn1c(=O)n(C2CCC(=O)NC2=O)c2cccc(CN3CCC4(CC3)CC(N3CCC5(CCN(c6nccc(COc7ccc(C(C)(C)c8cc(Cl)cc(C#N)c8)cc7)n6)CC5)CC3)C4)c21 (stereo not shown) [Compound 101 trifluoroacetate, 3-chloro-5-(2-(4-((2-(9-(7-((1-(2,6-dioxopiperidin-3-yl)-3-methyl-2-oxo-2,3-dihydro-1H-benzo[d]imidazol-4-yl)methyl)-7-azaspiro[3.5]nonan-2-yl)-3,9-diazaspiro[5.5]undecan-3-yl)pyrimidin-4-yl)methoxy)phenyl)propan-2-yl)benzonitrile] | – | 699 nM
3 | CCOc1c(Cl)cc(C(C)(C)c2ccc(OCc3ccnc(N4CCC(CN(C)C5CCN(c6ccc7c(c6)n(C)c(=O)n7C6CCC(=O)NC6=O)CC5)CC4)n3)cc2)cc1C#N (stereo not shown) [Compound 102 trifluoroacetate, 3-chloro-5-(2-(4-((2-(4-(((1-(1-(2,6-dioxopiperidin-3-yl)-3-methyl-2-oxo-2,3-dihydro-1H-benzo[d]imidazol-5-yl)piperidin-4-yl)(methyl)amino)methyl)piperidin-1-yl)pyrimidin-4-yl)methoxy)phenyl)propan-2-yl)-2-ethoxybenzonitrile] | – | 641 nM
4 | Cn1c(=O)n(C2CCC(=O)NC2=O)c2ccc(N3CCC(C4CCN(C5CCN(c6nccc(COc7ccc(C(C)(C)c8cc(Cl)cc(C#N)c8)cc7)n6)CC5)CC4)CC3)cc21 (stereo not shown) [Compound 104 trifluoroacetate, 3-chloro-5-(2-(4-((2-(1″-(1-(2,6-dioxopiperidin-3-yl)-3-methyl-2-oxo-2,3-dihydro-1H-benzo[d]imidazol-5-yl)-[4,1′:4′,4″-terpiperidin]-1-yl)pyrimidin-4-yl)methoxy)phenyl)propan-2-yl)benzonitrile] | – | 664 nM
5 | CCOc1c(Cl)cc(C(C)(C)c2ccc(OCc3ccnc(N4CCC5(CC4)CC(N4CCC(CN6CCC(c7ccc8c(c7)n(C)c(=O)n8C7CCC(=O)NC7=O)CC6)CC4)C5)n3)cc2)cc1C#N (stereo not shown) [Compound 109 trifluoroacetate, 3-chloro-5-(2-(4-((2-(2-(4-((4-(1-(2,6-dioxopiperidin-3-yl)-3-methyl-2-oxo-2,3-dihydro-1H-benzo[d]imidazol-5-yl)piperidin-1-yl)methyl)piperidin-1-yl)-7-azaspiro[3.5]nonan-7-yl)pyrimidin-4-yl)methoxy)phenyl)propan-2-yl)-2-ethoxybenzonitrile] | – | 330 nM
6 | Cn1c(=O)n(C2CCC(=O)NC2=O)c2cccc(C3CCN(CC4(F)CCN(C5CC6(CCN(c7nccc(COc8ccc(C(C)(C)c9cc(Cl)cc(C#N)c9)cc8)n7)CC6)C5)CC4)CC3)c21 (stereo not shown) [Compound 115 trifluoroacetate, 3-chloro-5-(2-(4-((2-(2-(4-((4-(1-(2,6-dioxopiperidin-3-yl)-3-methyl-2-oxo-2,3-dihydro-1H-benzo[d]imidazol-4-yl)piperidin-1-yl)methyl)-4-fluoropiperidin-1-yl)-7-azaspiro[3.5]nonan-7-yl)pyrimidin-4-yl)methoxy)phenyl)propan-2-yl)benzonitrile] | – | 955 nM
7 | CCOc1c(Cl)cc(C(C)(C)c2ccc(OCc3ccnc(N4CC5(CCC(N6CCC(c7ccc8c(c7)n(C)c(=O)n8C7CCC(=O)NC7=O)CC6)CC5)C4)n3)cc2)cc1C#N (stereo not shown) [Compound 121 trifluoroacetate, 3-chloro-5-(2-(4-((2-(7-(4-(1-(2,6-dioxopiperidin-3-yl)-3-methyl-2-oxo-2,3-dihydro-1H-benzo[d]imidazol-5-yl)piperidin-1-yl)-2-azaspiro[3.5]nonan-2-yl)pyrimidin-4-yl)methoxy)phenyl)propan-2-yl)-2-ethoxybenzonitrile] | – | 842 nM

Continued by falling IC50 (22RV1 cells), values first:

Row | AUC(0-t) [1] | IC50 (22RV1 cells) | SMILES
8 | – | 1010 nM | Cn1c(=O)n(C2CCC(=O)NC2=O)c2ccc(C3CCN(C4CCC5(CC4)CN(c4nccc(COc6ccc(C(C)(C)c7cc(Cl)cc(C#N)c7)cc6)n4)C5)CC3)cc21 (stereo not shown) [Compound 122 trifluoroacetate, 3-chloro-5-(2-(4-((2-(7-(4-(1-(2,6-dioxopiperidin-3-yl)-3-methyl-2-oxo-2,3-dihydro-1H-benzo[d]imidazol-5-yl)piperidin-1-yl)-2-azaspiro[3.5]nonan-2-yl)pyrimidin-4-yl)methoxy)phenyl)propan-2-yl)benzonitrile]
9 | – | 823 nM | Cn1c(=O)n(C2CCC(=O)NC2=O)c2ccc(N3CCC(C4CCN(CC5CN(c6nccc(COc7ccc(C(C)(C)c8cc(Cl)cc(C#N)c8)cc7)n6)C5)CC4)CC3)cc21 (stereo not shown) [Compound 103 trifluoroacetate, 3-chloro-5-(2-(4-((2-(3-((1′-(1-(2,6-dioxopiperidin-3-yl)-3-methyl-2-oxo-2,3-dihydro-1H-benzo[d]imidazol-5-yl)-[4,4′-bipiperidin]-1-yl)methyl)azetidin-1-yl)pyrimidin-4-yl)methoxy)phenyl)propan-2-yl)benzonitrile]
10 | – | 665 nM | CN(CC1CCN(c2nccc(COc3ccc(C(C)(C)c4cc(Cl)cc(C#N)c4)cc3)n2)CC1)C1CCN(c2ccc3c(c2)n(C)c(=O)n3C2CCC(=O)NC2=O)CC1 (stereo not shown) [Compound 114 trifluoroacetate, 3-chloro-5-(2-(4-((2-(4-(((1-(1-(2,6-dioxopiperidin-3-yl)-3-methyl-2-oxo-2,3-dihydro-1H-benzo[d]imidazol-5-yl)piperidin-4-yl)(methyl)amino)methyl)piperidin-1-yl)pyrimidin-4-yl)methoxy)phenyl)propan-2-yl)benzonitrile]
11 | – | 576 nM | Cn1c(=O)n(C2CCC(=O)NC2=O)c2cccc(C3CCN(CC4(F)CCN(C5CCN(c6nccc(COc7ccc(C(C)(C)c8cc(Cl)cc(C#N)c8)cc7)n6)CC5)CC4)CC3)c21 (stereo not shown) [Compound 124 trifluoroacetate, 3-chloro-5-(2-(4-((2-(4-((4-(1-(2,6-dioxopiperidin-3-yl)-3-methyl-2-oxo-2,3-dihydro-1H-benzo[d]imidazol-4-yl)piperidin-1-yl)methyl)-4-fluoro-[1,4′-bipiperidin]-1′-yl)pyrimidin-4-yl)methoxy)phenyl)propan-2-yl)benzonitrile]
12 | – | 575 nM | Cn1c(=O)n(C2CCC(=O)NC2=O)c2ccc(C3CCN(CC4CCN(c5nccc(COc6ccc(C(C)(C)c7cc(Cl)cc(C#N)c7)cc6)n5)CC4)CC3)cc21 (stereo not shown) [Compound 105 trifluoroacetate, 3-chloro-5-(2-(4-((2-(4-((4-(1-(2,6-dioxopiperidin-3-yl)-3-methyl-2-oxo-2,3-dihydro-1H-benzo[d]imidazol-5-yl)piperidin-1-yl)methyl)piperidin-1-yl)pyrimidin-4-yl)methoxy)phenyl)propan-2-yl)benzonitrile]
13 | – | 550 nM | Cn1c(=O)n(C2CCC(=O)NC2=O)c2ccc(C3CCN(C4CC5(CCN(c6nccc(COc7ccc(C(C)(C)c8cc(Cl)cc(C#N)c8)cc7)n6)CC5)C4)CC3)cc21 (stereo not shown) [Compound 106 trifluoroacetate, 3-chloro-5-(2-(4-((2-(2-(4-(1-(2,6-dioxopiperidin-3-yl)-3-methyl-2-oxo-2,3-dihydro-1H-benzo[d]imidazol-5-yl)piperidin-1-yl)-7-azaspiro[3.5]nonan-7-yl)pyrimidin-4-yl)methoxy)phenyl)propan-2-yl)benzonitrile]
14 | – | 526 nM | CCOc1c(Cl)cc(C(C)(C)c2ccc(OCc3ccnc(N4CCC5(CC4)CC(N4CCC(c6ccc7c(c6)n(C)c(=O)n7C6CCC(=O)NC6=O)CC4)C5)n3)cc2)cc1C#N (stereo not shown) [Compound 107 trifluoroacetate, 3-chloro-5-(2-(4-((2-(2-(4-(1-(2,6-dioxopiperidin-3-yl)-3-methyl-2-oxo-2,3-dihydro-1H-benzo[d]imidazol-5-yl)piperidin-1-yl)-7-azaspiro[3.5]nonan-7-yl)pyrimidin-4-yl)methoxy)phenyl)propan-2-yl)-2-ethoxybenzonitrile]
15 | – | 419 nM | COc1c(Cl)cc(C(C)(C)c2ccc(OCc3ccnc(N4CCC5(CC4)CC(CN4CCC(c6ccc7c(c6)n(C)c(=O)n7C6CCC(=O)NC6=O)CC4)C5)n3)cc2)cc1C#N (stereo not shown) [Compound 113 trifluoroacetate, 3-chloro-5-(2-(4-((2-(2-((4-(1-(2,6-dioxopiperidin-3-yl)-3-methyl-2-oxo-2,3-dihydro-1H-benzo[d]imidazol-5-yl)piperidin-1-yl)methyl)-7-azaspiro[3.5]nonan-7-yl)pyrimidin-4-yl)methoxy)phenyl)propan-2-yl)-2-methoxybenzonitrile]
16 | – | 251 nM | Cn1c(=O)n(C2CCC(=O)NC2=O)c2ccc(C3CCN(CC4CCN(C5CC6(CCN(c7nccc(COc8ccc(C(C)(C)c9cc(Cl)cc(C#N)c9)cc8)n7)CC6)C5)CC4)CC3)cc21 (stereo not shown) [Compound 108 trifluoroacetate, 3-chloro-5-(2-(4-((2-(2-(4-((4-(1-(2,6-dioxopiperidin-3-yl)-3-methyl-2-oxo-2,3-dihydro-1H-benzo[d]imidazol-5-yl)piperidin-1-yl)methyl)piperidin-1-yl)-7-azaspiro[3.5]nonan-7-yl)pyrimidin-4-yl)methoxy)phenyl)propan-2-yl)benzonitrile]
